The source of these data is BindingDB's records for doi:10.1111/j.1600-0773.1998.tb01469.x (Case Western Reserve University, 1998).

The assay deals with T1, Muscarinic acetylcholine receptor M4 (Homo sapiens, UniProt P08173).
T1 sequence (P08173 whole entry): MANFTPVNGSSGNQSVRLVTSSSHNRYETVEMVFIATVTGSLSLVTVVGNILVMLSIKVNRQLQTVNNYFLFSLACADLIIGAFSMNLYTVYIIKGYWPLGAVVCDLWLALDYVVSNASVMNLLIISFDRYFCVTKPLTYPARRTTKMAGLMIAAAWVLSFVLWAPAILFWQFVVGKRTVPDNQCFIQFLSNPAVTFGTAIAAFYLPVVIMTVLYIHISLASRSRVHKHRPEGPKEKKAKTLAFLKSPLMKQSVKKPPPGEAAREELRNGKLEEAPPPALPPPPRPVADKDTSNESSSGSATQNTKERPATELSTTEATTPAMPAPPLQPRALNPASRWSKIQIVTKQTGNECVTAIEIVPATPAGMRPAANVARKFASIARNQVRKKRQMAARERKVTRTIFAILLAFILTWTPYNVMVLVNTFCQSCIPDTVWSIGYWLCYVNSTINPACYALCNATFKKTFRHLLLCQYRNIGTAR

The term Ki denotes a dissociation constant, usually derived from enzyme kinetics or from competition with a known ligand. Low readings indicate a stronger hold on the target, high ones a looser hold on the target.

Several values for one entry are separate records, joined by “and”; a condition that tells them apart may be missing. Identical values can stand only once.

In the case of `O[Si](CCCN1CCCCC1)(c1ccccc1)C1CCCCC1` (configuration not stated) [HHSiD], the Ki is 4.16 nM and 16.6 nM. As for `COc1ccccc1CNCCCCCCNCCCCCCCCNCCCCCCNCc1ccccc1OC` [METHOCTRAMINE], the Ki was 66.1 nM and 72.4 nM.
